From patent US20110092544A1, “FUNGICIDAL PYRIDINES” (E.I. DU PONT DE nemours and company, priority 2008, published 2011)

Experiments:
Assay type in all cases: in vivo
Plasmopara viticola = test: Test H: grape downy mildew, spray after inoculation of grape seedlings, visual disease rating; settings: 200 ppm, 100 = 100% disease control, 0 = no control
Excerpt: General protocol for preparing test suspensions for Tests A-H: The test compounds were first dissolved in acetone in an amount equal to 3% of the final volume and then suspended at the desired concentration (in ppm) in acetone and purified water (50/50 mix) containing 250 ppm of the surfactant Trem® 014 (polyhydric alcohol esters). The resulting test suspensions were then used in tests A-H. Spraying a 200 ppm test suspension to the point of run-off on the test plants was the equivalent of a rate of 500 g/ha.
Grape seedlings were inoculated with a spore suspension of Plasmopara viticola (the causal agent of grape downy mildew) and incubated in a saturated atmosphere at 20° C. for 24 h. After a short drying period, the test suspension was sprayed to the point of run-off on the grape seedlings, and then moved to a growth chamber at 20° C. for 6 days, after which time the test units were placed back into a saturated atmosphere at 20° C. for 24 h. Upon removal, disease ratings were visually made.
Results for Tests A-H are given in Table A. In the table, a rating of 100 indicates 100% disease control and a rating of 0 indicates no disease control (relative to the controls). A dash (-) indicates no test results. All results are for compounds tested at 200 ppm except where the compound number is followed by “*” which indicates the compound was tested at 40 ppm.

Botrytis cinerea = test: Test F: tomato botrytis, preventive spray on tomato seedlings, visual disease rating
How it was run: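 Tomato seedlings sprayed to run-off with compound suspended in acetone/water (50/50) plus 250 ppm Trem 014, at 200 ppm (≈500 g/ha) or 40 ppm where marked. Inoculated next day with B. cinerea spores, 48 h saturated atmosphere at 20 °C, then 3 days at 24 °C. Visual rating, 0–100% disease control relative to controls.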

[1] = test system: Erysiphe graminis f. sp. tritici; test: Test A: wheat powdery mildew, preventive spray on wheat seedlings, visual disease rating
How it was run: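 Acetone/water (50/50) suspension with 250 ppm surfactant sprayed to run-off on wheat seedlings (200 ppm ≈ 500 g/ha); inoculated next day with E. graminis spore dust. Incubated 8 days at 20° C, then visually rated 0–100% disease control versus untreated controls; tests at 200 ppm or 40 ppm.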

Alternaria solani = test: Test E: tomato early blight, preventive spray on tomato seedlings, visual disease rating
How it was run: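 Seedlings sprayed to run-off with compound in acetone/water plus 250 ppm Trem 014 (200 ppm ≈ 500 g/ha), inoculated with spores next day. Held 48 h saturated at 27 °C, then 5 days at 20 °C; visual rating 0–100% disease control relative to controls.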

Septoria tritici = test: Test C: wheat leaf blotch, preventive spray on wheat seedlings, visual disease rating
How it was run: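 Wheat seedlings sprayed to run-off with compound in acetone/water plus 250 ppm surfactant at 200 ppm (≈500 g/ha), or 40 ppm where marked; inoculated with Septoria tritici next day. Held saturated at 20 °C for 48 h, then 19 days at 20 °C; disease control rated visually 0–100 versus controls.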

Septoria nodorum = test: Test D: wheat glume blotch, preventive spray on wheat seedlings, visual disease rating
How it was run: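 Compounds in 3% acetone, then 50/50 acetone–water with 250 ppm Trem 014, sprayed to run-off at 200 ppm (500 g/ha; some at 40 ppm) one day before spore inoculation. Held 48 h saturated at 20 °C, then 7 days at 20 °C; visual rating as % disease control vs untreated (0–100).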

[2] = test system: Puccinia recondite f. sp. tritici; test: Test B: wheat leaf rust, preventive spray on wheat seedlings, visual disease rating
How it was run: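 Wheat seedlings were sprayed to run-off with compound suspension, 200 ppm (≈500 g/ha) or 40 ppm where marked, containing surfactant in acetone/water. Inoculation with Puccinia recondita spores followed one day later, then 24 h in saturated humidity at 20° C and 7 days at 20° C. Disease control was rated visually, 0–100% versus controls.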

[3] = 200 ppm, 100 = 100% disease control, 0 = no control
[4] = 40 ppm (compound number followed by *)

Row | SMILES | Test F rating (% disease control) (Botrytis cinerea; [3]) [%] | Test A rating (% disease control) [1, 3] [%] | Test E rating (% disease control) (Alternaria solani; [3]) [%] | Test C rating (% disease control) (Septoria tritici; [3]) [%] | Test D rating (% disease control) (Septoria nodorum; [3]) [%] | Test B rating (% disease control) [2, 3] [%] | Test F rating (% disease control) (Botrytis cinerea; [4]) [%] | Test A rating (% disease control) [1, 4] [%] | Test C rating (% disease control) (Septoria tritici; [4]) [%] | Test E rating (% disease control) (Alternaria solani; [4]) [%] | Test D rating (% disease control) (Septoria nodorum; [4]) [%] | Test B rating (% disease control) [2, 4] [%] | also measured
1 | COc1cc(OC)cc(-c2c(-c3ccccc3F)c[n+]([O-])c(C)c2-c2ccccc2)c1 [Compound 33] | 95 | 79 | 100 |  |  |  |  |  |  |  |  |  | Test H rating (% disease control) (Plasmopara viticola): 0%
2 | COc1cc(OC)cc(-c2c(-c3c(F)cccc3F)cnc(C#N)c2-c2c(F)cccc2F)c1 [Compound 81] | 46 | 78 | 98 | 93 | 0 | 96 |  |  |  |  |  |  | 
3 | COc1cc(OC)cc(-c2c(C3CCOCC3)cnc(C)c2-c2c(F)cc(F)cc2F)c1 [Compound 79] |  |  |  |  |  |  | 91 | 97 | 93 | 100 | 95 | 100 | 
4 | COc1cc(OC)cc(-c2c(C(C)=O)cnc(C)c2-c2c(F)ccc(F)c2F)c1 [Compound 68] | 99 | 100 | 99 | 88 | 0 | 99 |  |  |  |  |  |  | 
5 | Cc1cnc(C)c(-c2c(F)cccc2F)c1-c1ccc(Cl)cc1 [Compound 144] |  |  |  |  |  |  | 45 | 0 | 0 | 0 | 0 | 0 | 
6 | COc1cc(OC)cc(-c2c(C(C)C)cnc(C)c2-c2c(F)cc(OC)cc2F)c1 [Compound 75] |  |  |  |  |  |  | 99 | 99 | 96 | 100 | 99 | 100 | 
7 | COc1cc(OC)cc(-c2c(C(C)=NO)cnc(C)c2-c2c(F)cc(F)cc2F)c1 (single isomer, unassigned) [Compound 114] |  |  |  |  |  |  | 99 | 89 | 99 | 94 | 69 | 99 | 
8 | CCC(C)c1cnc(C)c(-c2ccc(F)cc2)c1-c1cc(OC)cc(OC)c1 (stereo not shown) [Compound 63] | 97 | 78 | 74 | 79 | 0 | 96 |  |  |  |  |  |  | 
9 | COc1cc(OC)cc(-c2c(-c3c(F)cc(F)cc3F)cnc(Cl)c2-c2c(F)cc(F)cc2F)c1 [Compound 80] | 0 | 95 | 64 | 57 | 0 | 97 |  |  |  |  |  |  | 
10 | COc1cc(OC)cc(-c2c(C(C)(C)OC(C)=O)cnc(C)c2-c2c(F)cc(F)cc2F)c1 [Compound 102] | 98 | 98 | 91 | 97 | 0 | 92 |  |  |  |  |  |  | 
11 | COc1cc(OC)c(Cl)c(-c2c(-c3ccccc3F)cnc(C)c2-c2c(F)cc(F)cc2F)c1 [Compound 135, 4-(2-chloro-3,5-dimethoxyphenyl)-5-(2-fluorophenyl)-2-methyl-3-(2,4,6-trifluorophenyl)pyridine] |  |  |  |  |  |  |  |  |  |  |  |  | pest or weed control at 40 ppm (Botrytis cinerea; Botrytis cinerea, 120 h, 40 ppm (compound number followed by *)): 100%; pest or weed control at 40 ppm ([1]; Blumeria graminis, 192 h, 40 ppm (compound number followed by *)): 98%; pest or weed control at 40 ppm (Septoria tritici; Zymoseptoria tritici, 504 h, 40 ppm (compound number followed by *)): 99%; pest or weed control at 40 ppm (Alternaria solani; Alternaria solani, 168 h, 40 ppm (compound number followed by *)): 88%; pest or weed control at 40 ppm (Septoria nodorum; Parastagonospora nodorum, 216 h, 40 ppm (compound number followed by *)): 96%; pest or weed control at 40 ppm ([2]; 192 h, 40 ppm (compound number followed by *)): 100%
12 | COc1cc(OC)cc(-c2c(C(C)O)cnc(C)c2-c2c(F)ccc(OC)c2F)c1 (stereo not shown) [Compound 116] |  |  |  |  |  |  | 99 | 94 | 95 | 99 | 0 | 89 | 
13 | COc1cc(OC)cc(-c2c(COc3ccccc3)cnc(C)c2-c2c(F)cc(F)cc2F)c1 [Compound 109] | 92 | 98 | 0 | 97 | 0 | 97 |  |  |  |  |  |  | 
14 | COc1cc(OC)cc(-c2c(C(C)(C)O)cnc(C)c2-c2c(F)cc(OC)cc2F)c1 [Compound 72, 5-(2,6-difluoro-4-methoxyphenyl)-4-(3,5-dimethoxyphenyl)-α,α,6-trimethyl-3-pyridinemethanol] |  |  |  |  |  |  |  |  |  |  |  |  | pest or weed control at 200 ppm (Botrytis cinerea; Botrytis cinerea, 120 h, 200 ppm, 100 = 100% disease control, 0 = no control): 99%; pest or weed control at 200 ppm ([1]; Blumeria graminis, 192 h, 200 ppm, 100 = 100% disease control, 0 = no control): 100%; pest or weed control at 200 ppm (Septoria tritici; Zymoseptoria tritici, 504 h, 200 ppm, 100 = 100% disease control, 0 = no control): 95%; pest or weed control at 200 ppm (Alternaria solani; Alternaria solani, 168 h, 200 ppm, 100 = 100% disease control, 0 = no control): 100%; pest or weed control at 200 ppm (Septoria nodorum; Parastagonospora nodorum, 216 h, 200 ppm, 100 = 100% disease control, 0 = no control): 100%; pest or weed control at 200 ppm ([2]; 192 h, 200 ppm, 100 = 100% disease control, 0 = no control): 100%
15 | COc1cc(OC)cc(-c2c(-c3cnc(OC)nc3OC)cnc(C)c2-c2c(F)cc(F)cc2F)c1 [Compound 131] |  |  |  |  |  |  | 80 | 0 | 0 | 0 | 0 | 9 | 
16 | CCOC(=O)c1cnc(C)c(-c2ccc(OC)cc2)c1-c1cc(OC)cc(OC)c1 [Compound 60] | 99 | 59 | 0 | 68 | 0 | 59 |  |  |  |  |  |  | 
17 | C=C(C)c1cnc(C)c(-c2c(F)ccc(F)c2F)c1-c1cc(OC)cc(OC)c1 [Compound 77] |  |  |  |  |  |  | 84 | 100 | 92 | 99 | 0 | 99 | 
18 | CCC(C)c1cnc(C)c(-c2c(F)cc(F)cc2F)c1-c1cc(OC)cc(OC)c1 (stereo not shown) [Compound 73] |  |  |  |  |  |  | 99 | 100 | 94 | 91 | 0 | 100 | 
19 | Cc1ncc(-c2ccccc2F)c(-c2cc(OC(F)F)cc(OC(F)F)c2)c1-c1ccc(F)cc1 [Compound 101] | 96 | 82 | 0 | 96 | 0 | 89 |  |  |  |  |  |  | 
20 | COc1cc(OC)c(Cl)c(-c2c(C(C)=O)cnc(C)c2-c2c(F)cc(F)cc2F)c1 [Compound 118] |  |  |  |  |  |  | 100 | 100 | 96 | 99 | 0 | 100 | 
